# Test results: the NIST ThermoML archive (doi:10.1021/acs.jced.5b00428)
# Numbers after ± are expanded uncertainties.
# What was measured:
# [1] = 101 kPa, Liquid, Capillary tube (Ostwald / Ubbelohde) method
# [2] = mn = molality of the nth substance listed, in mol/kg; settings: 100 kPa, Liquid; for viscosity: Capillary tube (Ostwald / Ubbelohde) method; for mass density: Vibrating tube method
smiles,measurement,setting,value
O [water],viscosity,[1]; 288.15 K,1.138 ± 0.024 mPa·s
same,viscosity,[1]; 293.15 K,1.001 ± 0.021 mPa·s
same,viscosity,[1]; 298.15 K,0.89 ± 0.019 mPa·s
same,viscosity,[1]; 303.15 K,0.797 ± 0.017 mPa·s
same,viscosity,[1]; 308.15 K,0.719 ± 0.015 mPa·s
same,viscosity,[1]; 313.15 K,0.653 ± 0.014 mPa·s
O [water] + CCCCn1cc[n+](C)c1.[Br-],viscosity,"[2]; 288.15 K, m2 = 0",1.138 ± 0.024 mPa·s
same,viscosity,"[2]; 293.15 K, m2 = 0",1.001 ± 0.021 mPa·s
same,viscosity,"[2]; 298.15 K, m2 = 0",0.89 ± 0.019 mPa·s
same,viscosity,"[2]; 303.15 K, m2 = 0",0.797 ± 0.017 mPa·s
same,viscosity,"[2]; 308.15 K, m2 = 0",0.719 ± 0.015 mPa·s
same,viscosity,"[2]; 313.15 K, m2 = 0",0.653 ± 0.014 mPa·s
CCCCn1cc[n+](C)c1.[Br-] [1-butyl-3-methylimidazolium bromide] + O,viscosity,"[2]; 288.15 K, m1 = 0.0046",1.14 ± 0.024 mPa·s
same,viscosity,"[2]; 288.15 K, m1 = 0.0141",1.146 ± 0.024 mPa·s
same,viscosity,"[2]; 288.15 K, m1 = 0.0231",1.148 ± 0.024 mPa·s
same,mass density,"[2]; 288.15 K, m1 = 0.0046",999.318 ± 0.12 kg/m3
same,mass density,"[2]; 288.15 K, m1 = 0.0141",999.804 ± 0.12 kg/m3
same,mass density,"[2]; 288.15 K, m1 = 0.0231",1000.22 ± 0.12 kg/m3
same,viscosity,"[2]; 293.15 K, m1 = 0.0046",1.003 ± 0.021 mPa·s
same,viscosity,"[2]; 293.15 K, m1 = 0.0141",1.008 ± 0.021 mPa·s
same,viscosity,"[2]; 293.15 K, m1 = 0.0231",1.012 ± 0.021 mPa·s
same,mass density,"[2]; 293.15 K, m1 = 0.0046",998.492 ± 0.12 kg/m3
same,mass density,"[2]; 293.15 K, m1 = 0.0141",998.891 ± 0.12 kg/m3
same,mass density,"[2]; 293.15 K, m1 = 0.0231",999.304 ± 0.12 kg/m3
same,viscosity,"[2]; 298.15 K, m1 = 0.0046",0.891 ± 0.019 mPa·s
same,viscosity,"[2]; 298.15 K, m1 = 0.0141",0.895 ± 0.019 mPa·s
same,viscosity,"[2]; 298.15 K, m1 = 0.0231",0.897 ± 0.019 mPa·s
same,mass density,"[2]; 298.15 K, m1 = 0.0046",997.279 ± 0.12 kg/m3
same,mass density,"[2]; 298.15 K, m1 = 0.0141",997.685 ± 0.12 kg/m3
same,mass density,"[2]; 298.15 K, m1 = 0.0231",998.078 ± 0.12 kg/m3
same,viscosity,"[2]; 303.15 K, m1 = 0.0046",0.8 ± 0.017 mPa·s
same,viscosity,"[2]; 303.15 K, m1 = 0.0141",0.8 ± 0.017 mPa·s
same,viscosity,"[2]; 303.15 K, m1 = 0.0231",0.804 ± 0.017 mPa·s
same,mass density,"[2]; 303.15 K, m1 = 0.0046",995.876 ± 0.13 kg/m3
same,mass density,"[2]; 303.15 K, m1 = 0.0141",996.322 ± 0.12 kg/m3
same,mass density,"[2]; 303.15 K, m1 = 0.0231",996.69 ± 0.12 kg/m3
same,viscosity,"[2]; 308.15 K, m1 = 0.0046",0.721 ± 0.015 mPa·s
same,viscosity,"[2]; 308.15 K, m1 = 0.0141",0.722 ± 0.015 mPa·s
same,viscosity,"[2]; 308.15 K, m1 = 0.0231",0.725 ± 0.015 mPa·s
same,mass density,"[2]; 308.15 K, m1 = 0.0046",994.252 ± 0.13 kg/m3
same,mass density,"[2]; 308.15 K, m1 = 0.0141",994.678 ± 0.13 kg/m3
same,mass density,"[2]; 308.15 K, m1 = 0.0231",995.112 ± 0.12 kg/m3
same,viscosity,"[2]; 313.15 K, m1 = 0.0046",0.654 ± 0.014 mPa·s
same,viscosity,"[2]; 313.15 K, m1 = 0.0141",0.656 ± 0.014 mPa·s
same,viscosity,"[2]; 313.15 K, m1 = 0.0231",0.657 ± 0.014 mPa·s
same,mass density,"[2]; 313.15 K, m1 = 0.0046",992.415 ± 0.13 kg/m3
same,mass density,"[2]; 313.15 K, m1 = 0.0141",992.871 ± 0.12 kg/m3
same,mass density,"[2]; 313.15 K, m1 = 0.0231",993.178 ± 0.12 kg/m3
